Assay results from PubChem BioAssay AID248 (DTP/NCI, 2004).
Values joined by “and” are separate entries in the source; they are usually repeats but may differ in a detail not shown here. Identical values can stand only once. Toxic doses and inconclusive results are not listed. Rule as the data show it: active = T/C of 150% or more; inactive = T/C below 125%.

Test system: L1210 leukemia ip in BDF1 mice, survival T/C
Experiment: NCI In Vivo Anticancer Drug Screen. Data for tumor model L1210 Leukemia (intraperitoneal) in B6D2F1 (BDF1) mice
Settings: endpoint: mean survival time, higher = longer survival
Procedure, shortened: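 Value reflects the ratio of survival in compound-treated mice to survival in vehicle-treated controls, with both groups carrying the same transplanted tumor.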

[1] = dose: 50.0 mg/kg/injection, schedule: Q01DX001 (ip), vehicle: carboxymethylcellulose (CMC)
[2] = dose: 100.0 mg/kg/injection, schedule: Q01DX001 (ip), vehicle: carboxymethylcellulose (CMC)
[3] = dose: 100.0 mg/kg/injection, schedule: Q01DX001 (ip), vehicle: Klucel (hydroxypropylcellulose) (HPC)
[4] = dose: 100.0 mg/kg/injection, schedule: Q01DX009 (ip), vehicle: Klucel (hydroxypropylcellulose) (HPC)
[5] = dose: 100.0 mg/kg/injection, schedule: Q04DX002 (ip), vehicle: Klucel (hydroxypropylcellulose) (HPC)
[6] = dose: 100.0 mg/kg/injection, schedule: Q04DX003 (ip), vehicle: Klucel (hydroxypropylcellulose) (HPC)
[7] = dose: 200.0 mg/kg/injection, schedule: Q01DX001 (ip), vehicle: Klucel (hydroxypropylcellulose) (HPC)
[8] = dose: 200.0 mg/kg/injection, schedule: Q01DX009 (ip), vehicle: Klucel (hydroxypropylcellulose) (HPC)
[9] = dose: 200.0 mg/kg/injection, schedule: Q04DX002 (ip), vehicle: Klucel (hydroxypropylcellulose) (HPC)
[10] = dose: 200.0 mg/kg/injection, schedule: Q04DX003 (ip), vehicle: Klucel (hydroxypropylcellulose) (HPC)
[11] = dose: 400.0 mg/kg/injection, schedule: Q01DX001 (ip), vehicle: Klucel (hydroxypropylcellulose) (HPC)
[12] = dose: 400.0 mg/kg/injection, schedule: Q01DX009 (ip), vehicle: Klucel (hydroxypropylcellulose) (HPC)
[13] = dose: 400.0 mg/kg/injection, schedule: Q04DX002 (ip), vehicle: Klucel (hydroxypropylcellulose) (HPC)
[14] = dose: 400.0 mg/kg/injection, schedule: Q04DX003 (ip), vehicle: Klucel (hydroxypropylcellulose) (HPC)
[15] = dose: 100.0 mg/kg/injection, schedule: Q01DX009 (ip), vehicle: saline with Tween-80
[16] = dose: 100.0 mg/kg/injection, schedule: Q04DX003 (ip), vehicle: saline
[17] = dose: 200.0 mg/kg/injection, schedule: Q01DX009 (ip), vehicle: saline with Tween-80
[18] = dose: 200.0 mg/kg/injection, schedule: Q04DX003 (ip), vehicle: saline
[19] = dose: 400.0 mg/kg/injection, schedule: Q01DX009 (ip), vehicle: saline with Tween-80
[20] = dose: 100.0 mg/kg/injection, schedule: Q04DX003 (ip), vehicle: saline with Tween-80
[21] = dose: 200.0 mg/kg/injection, schedule: Q04DX003 (ip), vehicle: saline with Tween-80
[22] = dose: 400.0 mg/kg/injection, schedule: Q04DX003 (ip), vehicle: saline with Tween-80
[23] = dose: 200.0 mg/kg/injection, schedule: Q01DX001 (ip), vehicle: carboxymethylcellulose (CMC)
[24] = dose: 400.0 mg/kg/injection, schedule: Q01DX001 (ip), vehicle: carboxymethylcellulose (CMC)

Measured: T/C

Nc1c([N+](=O)[O-])cc([N+](=O)[O-])c2ccccc12
inactive: dose: 15.0 mg/kg/injection, schedule: Q01DX015 (ip), vehicle: carboxymethylcellulose (CMC) 91 % of control | dose: 30.0 mg/kg/injection, schedule: Q01DX015 (ip), vehicle: carboxymethylcellulose (CMC) 91 % of control | [1] 104 % of control | dose: 60.0 mg/kg/injection, schedule: Q01DX015 (ip), vehicle: carboxymethylcellulose (CMC) 102 % of control | [2] 101 % of control | dose: 120.0 mg/kg/injection, schedule: Q01DX015 (ip), vehicle: carboxymethylcellulose (CMC) 98 % of control

CCOC(=O)Nc1cc([N+](=O)[O-])ccc1OC
inactive: [3] 105 % of control | [4] 105 % of control | [5] 96 % of control and 104 % of control | [6] 101 % of control | [7] 100 % of control | [8] 108 % of control | [9] 96 % of control and 97 % of control | [10] 98 % of control | [11] 101 % of control | [12] 102 % of control | [13] 96 % of control and 103 % of control | [14] 101 % of control

O=C(O)c1ccc(NC(=S)Nc2ccc(C(=O)O)cc2)cc1
inactive: [15] 93 % of control | [16] 94 % of control | [17] 112 % of control | [18] 100 % of control | [19] 93 % of control | dose: 400.0 mg/kg/injection, schedule: Q04DX003 (ip), vehicle: saline 104 % of control

Nc1ccc(CC2=C(Br)CNC(=O)N2)cc1
inactive: [3] 102 % of control | [7] 103 % of control

O=C(O)/C=C/C(=O)NCCNC(=O)/C=C/C(=O)O
inactive: [6] 96 % of control | [10] 93 % of control | [14] 96 % of control

CC(C)CCCBr
inactive: [15] 101 % of control | [20] 94 % of control | [17] 100 % of control | [21] 95 % of control | [19] 94 % of control | [22] 99 % of control

Clc1ccc2c(c1)C(N1CCOCC1)c1cc(Cl)cc(Cl)c1-2 (centres undefined)
inactive: [3] 102 % of control | [6] 98 % of control | [7] 92 % of control | [10] 96 % of control | [11] 96 % of control | [14] 94 % of control

COc1ccc([N+](=O)[O-])cc1NC(=O)Nc1ccc(F)c([N+](=O)[O-])c1
inactive: [4] 98 % of control | [8] 95 % of control | [12] 95 % of control

C[n+]1ncc2ccccc2c1Cc1ccc(Br)cc1
inactive: dose: 6.25 mg/kg/injection, schedule: Q01DX009 (ip), vehicle: other 98 % of control and 103 % of control | dose: 6.25 mg/kg/injection, schedule: Q04DX002 (ip), vehicle: carboxymethylcellulose (CMC) 91 % of control | dose: 12.5 mg/kg/injection, schedule: Q01DX009 (ip), vehicle: other 108 % of control and 86 % of control | dose: 12.5 mg/kg/injection, schedule: Q04DX002 (ip), vehicle: carboxymethylcellulose (CMC) 106 % of control | dose: 25.0 mg/kg/injection, schedule: Q04DX002 (ip), vehicle: carboxymethylcellulose (CMC) 91 % of control | dose: 25.0 mg/kg/injection, schedule: Q04DX002 (ip), vehicle: other 100 % of control and 90 % of control

CCOc1ccc(Br)cc1/C=C1\N=C(c2ccccc2)OC1=O
inactive: [4] 93 % of control and 95 % of control | [6] 97 % of control and 98 % of control | [8] 93 % of control and 98 % of control | [10] 98 % of control and 89 % of control | [12] 96 % of control and 86 % of control | [14] 93 % of control and 98 % of control

CCc1cc(C)cc(CC)c1N
inactive: [4] 104 % of control | [8] 90 % of control

Cc1ccc(CNC(=S)Nc2ccccc2)cc1
inactive: dose: 1.56 mg/kg/injection, schedule: Q01DX009 (ip), vehicle: Klucel (hydroxypropylcellulose) (HPC) 107 % of control | dose: 3.12 mg/kg/injection, schedule: Q01DX009 (ip), vehicle: Klucel (hydroxypropylcellulose) (HPC) 104 % of control | dose: 6.25 mg/kg/injection, schedule: Q01DX009 (ip), vehicle: Klucel (hydroxypropylcellulose) (HPC) 96 % of control and 100 % of control | [6] 96 % of control | [10] 96 % of control | [14] 92 % of control

NCC(=O)N/C(=C/c1ccccc1)C(=O)NCC(=O)O
inactive: dose: 100.0 mg/kg/injection, schedule: Q04DX002 (ip), vehicle: saline with Tween-80 97 % of control | dose: 200.0 mg/kg/injection, schedule: Q04DX002 (ip), vehicle: saline with Tween-80 97 % of control | dose: 400.0 mg/kg/injection, schedule: Q04DX002 (ip), vehicle: saline with Tween-80 97 % of control

COc1cc2c(cc1OC)C1C(C)c3ccc(OC)c(OC)c3CN1CC2 (centres undefined)
inactive: [2] 100 % of control | [23] 100 % of control | [24] 96 % of control

CC1(C)COCN1CN1COCC1(C)C
inactive: [16] 101 % of control | [18] 95 % of control

COc1ccc2cc(C)ncc2c1
inactive: dose: 100.0 mg/kg/injection, schedule: Q01DX001 (ip), vehicle: saline 96 % of control | dose: 200.0 mg/kg/injection, schedule: Q01DX001 (ip), vehicle: saline 91 % of control | dose: 400.0 mg/kg/injection, schedule: Q01DX001 (ip), vehicle: saline 91 % of control

CCCCCCCCCCCCCCCCS(=O)(=O)c1ccc(S(=O)(=O)F)cc1NC(=O)C(F)(F)F
inactive: [15] 87 % of control | [20] 92 % of control | [17] 97 % of control | [21] 93 % of control | [19] 105 % of control

OC1CCC2C=CCC1S2 (centres undefined)
inactive: dose: 100.0 mg/kg/injection, schedule: Q01DX009 (ip), vehicle: gum acacia 101 % of control | dose: 200.0 mg/kg/injection, schedule: Q01DX009 (ip), vehicle: gum acacia 100 % of control | dose: 400.0 mg/kg/injection, schedule: Q01DX009 (ip), vehicle: gum acacia 97 % of control

CCCCCCC(C)OC(=O)CCCc1ccc(N(CCCl)CCCl)cc1 (centres undefined)
inactive: dose: 50.0 mg/kg/injection, schedule: Q01DX009 (ip), vehicle: saline 122 % of control | dose: 100.0 mg/kg/injection, schedule: Q01DX009 (ip), vehicle: saline 116 % of control | dose: 400.0 mg/kg/injection, schedule: Q01DX009 (ip), vehicle: saline 100 % of control

FC(F)(CI)C(F)(F)C(F)(F)CI
inactive: dose: 100.0 mg/kg/injection, schedule: Q01DX001 (ip), vehicle: acetone 88 % of control | dose: 200.0 mg/kg/injection, schedule: Q01DX001 (ip), vehicle: acetone 88 % of control | dose: 400.0 mg/kg/injection, schedule: Q01DX001 (ip), vehicle: acetone 88 % of control

C1CCc2c(sc3c2CCCC3)C1
inactive: [1] 98 % of control | [2] 104 % of control | [23] 98 % of control | [24] 107 % of control

O=C(O)c1ccc([N+](=O)[O-])cc1F
inactive: [2] 101 % of control | dose: 100.0 mg/kg/injection, schedule: Q01DX009 (ip), vehicle: carboxymethylcellulose (CMC) 96 % of control and 116 % of control | [5] 90 % of control | dose: 100.0 mg/kg/injection, schedule: Q04DX002 (ip), vehicle: carboxymethylcellulose (CMC) 102 % of control and 107 % of control | dose: 100.0 mg/kg/injection, schedule: Q04DX003 (ip), vehicle: carboxymethylcellulose (CMC) 97 % of control | [23] 99 % of control | dose: 200.0 mg/kg/injection, schedule: Q01DX009 (ip), vehicle: carboxymethylcellulose (CMC) 107 % of control and 89 % of control | [9] 104 % of control | dose: 200.0 mg/kg/injection, schedule: Q04DX002 (ip), vehicle: carboxymethylcellulose (CMC) 99 % of control and 110 % of control | dose: 200.0 mg/kg/injection, schedule: Q04DX003 (ip), vehicle: carboxymethylcellulose (CMC) 100 % of control | dose: 400.0 mg/kg/injection, schedule: Q01DX009 (ip), vehicle: carboxymethylcellulose (CMC) 89 % of control | [13] 93 % of control | dose: 400.0 mg/kg/injection, schedule: Q04DX002 (ip), vehicle: carboxymethylcellulose (CMC) 100 % of control and 86 % of control

O=C1OCC/C1=C\c1ccc2c(c1)OCO2
inactive: [20] 105 % of control | [21] 101 % of control | [22] 90 % of control
